Assay results reported in patent USRE38460E1 (priority 1994, dated 2004).
Where two headings read alike, the source gives them in different places.

Legend:
BuChE = biological target: T1, BuChE (Rattus norvegicus, UniProt Q9JKC1); test: In-vitro anticholinesterase effect (Table 6), BuChE; type: biochemical; conditions: for inhibition at 10 µM: read-out: inhibition activity BuChE at 10(μM); for inhibition activity BuChE at 10(μM): Table 6
T1 construct: from tissue; host or cells: rat serum
Procedure: (§1) In the present invention a calorimetric method reported by Ellman was used to determine the effect of inhibition of the pharmaceutical on enzyme activity. The total volume of the solution of the enzyme activity reaction was 4 ml, which contained 0.3 mmol/L of acetylcholin iodide (acetylcholinesterase substrate), or 0.4 mmol/L of butyrylcholin iodide (butyrylcholinesterase substrate), 1 ml of the buffer solution of 25 mmol/L of phosphate of pH 7.4, and water to make up to 4 ml (including the amount of the enzyme solution and the testing reagent added afterwards). After the solution was kept at 37° C. for 5 minutes, 0.1-0.2 ml of enzyme solution (red cell membrane or serum of rat) was added, or 0.1-0.3 ml of the testing reagent was added at the same time. The solution was kept at the same temperature for another 8 minutes. Then 1 ml of 3% of sodium lauryl sulphate was added to terminate the reaction. Finally 1 ml of 0.2% 5,5-dithio-2,2′-nitro-benzoic acid solution was added for developing.

[1] = biological target: T2, butyrylcholinesterase (BuChE) (Rattus norvegicus, UniProt Q9JKC1); test: In-vitro anticholinesterase effect, colorimetric method (Ellman), BuChE from rat's serum; type: biochemical
T2 construct: from tissue; host or cells: rat serum
T2 sequence (Q9JKC1 24-597): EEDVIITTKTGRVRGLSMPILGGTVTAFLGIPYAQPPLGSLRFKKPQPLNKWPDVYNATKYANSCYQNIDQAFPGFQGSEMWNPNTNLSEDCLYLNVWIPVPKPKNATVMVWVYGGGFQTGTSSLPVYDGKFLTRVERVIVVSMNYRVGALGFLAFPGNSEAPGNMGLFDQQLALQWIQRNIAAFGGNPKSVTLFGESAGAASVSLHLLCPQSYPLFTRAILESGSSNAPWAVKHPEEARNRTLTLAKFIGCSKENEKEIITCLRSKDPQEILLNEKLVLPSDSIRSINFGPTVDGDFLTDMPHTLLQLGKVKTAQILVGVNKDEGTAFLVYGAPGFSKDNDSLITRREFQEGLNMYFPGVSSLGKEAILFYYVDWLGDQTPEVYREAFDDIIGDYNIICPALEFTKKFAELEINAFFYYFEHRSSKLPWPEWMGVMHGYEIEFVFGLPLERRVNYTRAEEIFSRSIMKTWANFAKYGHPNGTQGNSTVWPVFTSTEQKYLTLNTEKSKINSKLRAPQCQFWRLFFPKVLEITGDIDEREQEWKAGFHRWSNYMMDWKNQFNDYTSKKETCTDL
Procedure: as §1
(§2) AChE taken from rat's red cell membrane. BuChE taken from rat's serum.
(§3) AChE taken from homogenate of rat's cortex. BuChE taken from rat's serum.

[2] = biological target: T3, acetylcholinesterase (AChE) (Rattus norvegicus, UniProt P37136); test: biochemical; type: biochemical
T3 construct: from tissue; host or cells: rat red cell membrane
Procedure: as §1, §2
T3 sequence (P37136 other isoform, or with tags, fused parts or gaps): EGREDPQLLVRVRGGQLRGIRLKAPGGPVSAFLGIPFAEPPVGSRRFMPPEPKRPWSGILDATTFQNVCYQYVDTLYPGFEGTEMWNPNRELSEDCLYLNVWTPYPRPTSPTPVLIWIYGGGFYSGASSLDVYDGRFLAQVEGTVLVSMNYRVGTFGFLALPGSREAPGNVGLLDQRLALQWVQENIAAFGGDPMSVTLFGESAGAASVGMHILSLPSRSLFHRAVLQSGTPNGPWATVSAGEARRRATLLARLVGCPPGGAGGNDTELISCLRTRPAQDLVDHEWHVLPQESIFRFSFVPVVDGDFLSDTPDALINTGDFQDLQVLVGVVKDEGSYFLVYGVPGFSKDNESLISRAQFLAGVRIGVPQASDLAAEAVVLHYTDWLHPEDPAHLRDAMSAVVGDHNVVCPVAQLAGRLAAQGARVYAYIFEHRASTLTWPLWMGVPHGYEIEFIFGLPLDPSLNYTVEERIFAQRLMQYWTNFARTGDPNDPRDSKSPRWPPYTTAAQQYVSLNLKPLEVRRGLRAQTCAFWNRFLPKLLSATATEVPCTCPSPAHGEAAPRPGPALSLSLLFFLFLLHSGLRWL

[3] = biological target: T4, acetylcholinesterase (AChE) (Rattus norvegicus, UniProt P37136); test: biochemical; type: biochemical; conditions: for IC50 ratio BuChE/AChE: cortex AChE, serum BuChE
T4 construct: from tissue; host or cells: homogenate of rat cortex
T4 sequence (P37136 32-614): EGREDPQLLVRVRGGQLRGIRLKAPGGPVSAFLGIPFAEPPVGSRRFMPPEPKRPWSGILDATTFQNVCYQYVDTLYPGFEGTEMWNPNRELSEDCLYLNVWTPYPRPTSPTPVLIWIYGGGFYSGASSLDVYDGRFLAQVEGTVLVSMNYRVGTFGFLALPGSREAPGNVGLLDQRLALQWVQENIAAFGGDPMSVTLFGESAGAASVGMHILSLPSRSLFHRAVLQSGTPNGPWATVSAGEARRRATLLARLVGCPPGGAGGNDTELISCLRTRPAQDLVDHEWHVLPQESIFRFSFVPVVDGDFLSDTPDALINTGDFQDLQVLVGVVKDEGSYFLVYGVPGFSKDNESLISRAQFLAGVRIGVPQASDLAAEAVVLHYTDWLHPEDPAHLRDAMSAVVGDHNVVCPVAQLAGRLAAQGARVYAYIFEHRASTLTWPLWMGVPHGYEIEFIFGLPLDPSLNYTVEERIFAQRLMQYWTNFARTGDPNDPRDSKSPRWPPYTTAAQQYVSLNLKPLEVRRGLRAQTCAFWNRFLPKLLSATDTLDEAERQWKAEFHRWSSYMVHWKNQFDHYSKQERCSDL
Procedure: as §1, §3

AChE = biological target: T5, AChE (Rattus norvegicus, UniProt P37136); test: biochemical
T5 construct: 0.1-0.2 ml of enzyme solution (red cell membrane or serum of rat) was added; from tissue; host or cells: rat tissue
T5 sequence (P37136 32-614): T4 sequence (P37136 32-614)
Procedure: as §1

[4] = system: memory impairment caused by scopolamine; test: 8-arm maze spatial distinction operation of rat, memory impairment caused by scopolamine; type: in vivo; conditions: rats, 8-arm maze; scopolamine + huperzine A 0.15 + 0.25 mg/kg ip + po
[5] = Critical toxicity on mice (Bliss method); type: in vivo; conditions: mouse, in vivo, po, mice, p.o., Bliss method, mortality within 7 days
Procedure: Test of each pharmaceutical was carried out using 4-5 dosage group.
Mortality within 7 days was observed.

[6] = read-out: concentration for inhibition of 50% of enzyme activity (IC50) butyrylcholinesterase (BuChE), Table 1, BuChE taken from rat's serum
[7] = read-out: concentration for inhibition of 50% of enzyme activity (IC50) butyrylcholinesterase (BuChE), Table 2, BuChE taken from rat's serum
[8] = read-out: concentration for inhibition of 50% of enzyme activity (IC50) acetylcholinesterase (AChE)
[9] = read-out: concentration for inhibition of 50% of enzyme activity (IC50) acetylcholinesterase (AChE), Table 2, AChE taken from homogenate of rat's cortex
[10] = Table 1, AChE taken from rat's red cell membrane
[11] = read-out: inhibition activity AChE IC50
[12] = Table 2, AChE taken from homogenate of rat's cortex
[13] = Table 6, read-out: inhibition activity AChE IC50

T1 sequence (Q9JKC1 24-597): as the sequence (Q9JKC1 24-597) above

COc1cc2c(cc1OC)C(=O)C(CC1CCN(Cc3ccccc3)CC1)C2 (stereo not drawn) [E-2020, reference compound]
inhibition at 10 µM (BuChE): 2.9%

CNC(=O)Oc1ccc2c(c1)[C@]1(C)CCN(C)[C@@H]1N2C [Physostigmine, reference compound]
IC50 [1]: 1260 nM

CC=C1C2C=C(C)CC1(NC(=O)CCC(=O)O)c1ccc(=O)[nH]c1C2 (stereo not drawn) [derivative No. 1]
IC50 [1, 6]: 380000 nM | IC50 [1, 7]: 380000 nM | inhibition effect on butyrylcholinesterase (pseudo enzyme) compared with huperzine A ([1]; see Tables 1, 2 and 6): weaker inhibition effect | IC50 ratio BuChE/AChE [2]: 1092.5 | inhibition effect on acetylcholinesterase (in words) [2]: remarkable inhibition effect | inhibition effect on acetylcholinesterase compared with huperzine A [2]: slightly weaker | inhibition effect on acetylcholinesterase compared with physostigmine and galanthamine [2]: apparently stronger | selective inhibition effect on acetylcholinesterase compared with huperzine A [2]: greater selective inhibition effect | IC50 [2, 8]: 348 nM | IC50 ratio BuChE/AChE ([3]; Table 2): 1094.1 | IC50 [3, 9]: 348 nM

CC=C1C2C=C(C)CC1(NC(=O)Cc1ccccc1)c1ccc(=O)[nH]c1C2 (stereo not drawn) [derivative No. 2]
IC50 [1]: > 347000 nM | IC50 [2, 10]: 9050 nM

CC=C1C2C=C(C)CC1(NC(=O)c1cccnc1)c1ccc(=O)[nH]c1C2 (stereo not drawn) [derivative No. 4]
IC50 [1]: 58900 nM | IC50 [2, 10]: > 12900 nM

CC=C1C2C=C(C)CC1(NC(=O)c1cccnc1)c1ccc(=O)n(C(=O)c3cccnc3)c1C2 (stereo not drawn) [derivative No. 5]
IC50 [1]: > 275000 nM | IC50 [2, 10]: > 11000 nM

CC=C1C2C=C(C)CC1(NC(=O)C1=CN(C)CC=C1)c1ccc(=O)[nH]c1C2 (stereo not drawn) [derivative No. 6]
IC50 [1, 6]: > 309000 nM | IC50 ([2]; read-out: concentration for inhibition of 50% of enzyme activity (IC50) acetylcholinesterase (AChE), Table 1, AChE taken from rat's red cell membrane): > 12300 nM

CC=C1C2C=C(C)CC1(NC(=O)C(C)C)c1ccc(=O)[nH]c1C2 (stereo not drawn) [derivative No. 10]
IC50 [1, 6]: 110000 nM | IC50 [2, 8]: > 15800 nM

CC=C1C2C=C(C)CC1(NC(=O)c1ccccc1)c1ccc(=O)[nH]c1C2 (stereo not drawn) [derivative No. 11]
IC50 [1, 6]: 363000 nM | IC50 [2, 8]: > 14400 nM

CC=C1C2C=C(C)CC1(NC(=O)c1ccccn1)c1ccc(=O)[nH]c1C2 (stereo not drawn) [derivative No. 12]
IC50 [1, 7]: 251000 nM | IC50 ratio BuChE/AChE ([3]; Table 2): 1995.2 | IC50 [3, 9]: 126 nM

CC=C1C2C=C(C)CC1(NC(=O)c1ccncc1)c1ccc(=O)[nH]c1C2 (stereo not drawn) [derivative No. 14]
inhibition activity BuChE at 10(μM) (BuChE): 2.5 | BuChE/AChE (AChE): >100 | inhibition activity AChE at 1(μM) (AChE): 76.4 | IC50 (AChE; [11]): 360 nM

CC=C1C2C=C(C)CC1(NC(=O)c1ccccc1C(=O)O)c1ccc(=O)[nH]c1C2 (stereo not drawn) [derivative No. 15]
IC50 [1, 7]: 502000 nM | inhibition activity BuChE at 10(μM) (BuChE): 0 | inhibition activity AChE at 1(μM) (AChE): 60.8 | IC50 ratio BuChE/AChE ([3]; Table 2): 795.6 | IC50 [3, 9]: 631 nM

CC=C1C2C=C(C)CC1(NC(=O)/C=C/CC(=O)O)c1ccc(=O)[nH]c1C2 (stereo not drawn) [derivative No. 16]
inhibition activity BuChE at 10(μM) (BuChE): 1.8 | BuChE/AChE (AChE): >200 | inhibition activity AChE at 1(μM) (AChE): 80.7 | IC50 (AChE; [11]): 210 nM

CC=C1C2C=C(C)CC1(N=Cc1ccccc1O)c1ccc(=O)[nH]c1C2 (stereo not drawn) [derivative No. 20]
IC50 [1]: 126000 nM | inhibition at 10 µM (BuChE): 0% | IC50 (AChE): 94 nM | BuChE/AChE (AChE; Table 6): >500 | inhibition at 1 µM (AChE; Table 6): 83.7% | IC50 [3, 12]: 178 nM | IC50 ratio BuChE/AChE ([3]; Table 2): 708.1

CC=C1C2C=C(C)CC1(N=Cc1cc(OC)c(OC)c(OC)c1)c1ccc(=O)[nH]c1C2 (stereo not drawn) [derivative No. 21]
IC50 [1]: 158000 nM | inhibition at 10 µM (BuChE): 0% | inhibition at 1 µM (AChE; Table 6): 84.9% | IC50 [3, 12]: 141 nM

CC=C1C2C=C(C)CC1(N=Cc1ccc(OC)c(OC)c1O)c1ccc(=O)[nH]c1C2 (stereo not drawn) [derivative No. 22]
IC50 [1]: 126000 nM | inhibition at 10 µM (BuChE): 0% | inhibition at 1 µM (AChE; Table 6): 68.7% | IC50 [3, 12]: 126 nM | IC50 ratio BuChE/AChE ([3]; Table 2): 1000.0

CC=C1C2C=C(C)CC1(N=Cc1ccc(O)cc1O)c1ccc(=O)[nH]c1C2 (stereo not drawn) [derivative No. 23]
IC50 [1]: 200000 nM | inhibition at 10 µM (BuChE): 0% | inhibition at 1 µM (AChE; Table 6): 34.4% | IC50 [3, 12]: 251 nM | IC50 ratio BuChE/AChE ([3]; Table 2): 794.2

CC=C1C2C=C(C)CC1(N=Cc1cccc(O)c1O)c1ccc(=O)[nH]c1C2 (stereo not drawn) [derivative No. 24]
inhibition at 10 µM (BuChE): 0% | inhibition at 1 µM (AChE; Table 6): 78.3% | IC50 (AChE; [13]): 280 nM | IC50 [3, 12]: 100 nM

CC=C1C2C=C(C)CC1(N=Cc1ccc(O)c(O)c1O)c1ccc(=O)[nH]c1C2 (stereo not drawn) [derivative No. 25]
IC50 [1]: 251000 nM | inhibition at 10 µM (BuChE): 0% | inhibition at 1 µM (AChE; Table 6): 62% | IC50 [3, 12]: 159 nM | IC50 ratio BuChE/AChE ([3]; Table 2): 1584.9

CC=C1C2C=C(C)CC1(N=Cc1cccc(OC)c1O)c1ccc(=O)[nH]c1C2 (stereo not drawn) [derivative No. 26]
inhibition at 10 µM (BuChE): 1.1% | BuChE/AChE (AChE; Table 6): >300 | inhibition at 1 µM (AChE; Table 6): 79.7% | IC50 (AChE; [13]): 180 nM

CC=C1C2C=C(C)CC1(N=CC=Cc1ccccc1)c1ccc(=O)[nH]c1C2 (stereo not drawn) [derivative No. 27]
IC50 [1]: 100000 nM | inhibition at 10 µM (BuChE): 3.3% | BuChE/AChE (AChE; Table 6): >500 | inhibition at 1 µM (AChE; Table 6): 84% | IC50 (AChE; [13]): 110 nM | IC50 [3]: 126 nM | IC50 ratio BuChE/AChE ([3]; Table 2): 794.3

CC=C1C2C=C(C)CC1(N=Cc1cccnc1)c1ccc(=O)[nH]c1C2 (stereo not drawn) [derivative No. 44]
inhibition at 10 µM (BuChE): 1.8% | BuChE/AChE (AChE; Table 6): >500 | inhibition at 1 µM (AChE; Table 6): 85.6% | IC50 (AChE; [13]): 110 nM

C/C=C1\C2C=C(C)C[C@]1(N)c1ccc(=O)[nH]c1C2 [huperzine A, (5R, 9R, 11E)-5-amino-11-ethylidene-5,6,9,10-tetrahydro-7-methyl-5,9-methylene cycloocta [b] pyridyl-2(1H)-one, reference compound]
No. of mistakes in operation before reaching the standard, reference memory (X + SEM) [4]: 0.57 | No. of mistakes in operation before reaching the standard, working memory (X + SEM) [4]: 0.86 | LD50 at 7 days ([5]; first of two columns headed LD50, read-out: LD50 (first column) (95% confidence limit)): 3.1 mg/kg | LD50 at 7 days ([5]; second of two columns headed LD50, read-out: LD50 (second column) (95% confidence limit)): 4.6 mg/kg
